According to patent US20130071496A1, “CONTROLLED RELEASE COMPOSITION CONTAINING A STRONTIUM SALT” (Osteologix A/S, priority 2003, published 2013):
Where two headings read alike, the source gives them in different places.

What was measured:
[1] = Experimental: The solubility of the organic carboxylic acid strontium salts, were measured in water. The solubility of these salts was also measured as a function of temperature. This was performed by incubating the saturated solutions of the salts in temperature controlled incubators.
The buffered solutions were immersed into a bath of water temperature controlled at either room temperature (22-24° C.), at 30° C. or at 40° C. […] In order to eliminate any reminiscent strontium chloride influence on the determination of solubility, all the precipitate was collected at the bottom of the test tubes and the solutions above the precipitate were carefully removed and substituted by fresh solutions. […] From these solutions, the dissolved proportions of the strontium salt were collected in volumes of 1 mL at the specified temperature. The solutions were diluted to 50 mL before analysis by Flame Atomic Absorption Spectrometry (F-AAS).
Two methods were used for quantification of strontium in solutions: Flame Atomic Absorption Spectrometry (F-AAS), and the more sensitive inductively-coupled-plasmamass spectrometry (ICP-MS).
The solubilities were investigated as described above, and strontium content in the saturated solutions determined as described here below.
Some of the very soluble strontium salts were further diluted before analysis by F-AAS. The measurements were performed by using a Perkin-Elmer 2100 equipped with a hydrogen lamp for correction of the background signal. Strontium was measured at a slit with of 0.2 nm, the wavelength was 460.8 nm operated at an energy of 58 and a current of 8 mA.
This analysis was performed using a Perkin Elmer Elan 5000 system equipped with a cross-flow nebulizer. The power was set at 1000 W and the Argon-gas flow was 12 L/min and 0.8 L/min of the torch and plasma gas, respectively.

Remark: listed apart in the source
[2] = values quoted in scientific literature or reference material; cited from earlier work

| Solubility, Measured ([1]; commercially available salts, in water at room temperature (22-24°)) [mg/mL] | time to maximum serum concentration (serum strontium, single oral gavage, rats) | time to maximum serum concentration (rat, in vivo, po) | Compound | SOLUBILITY AT 40° C., In water [1] [mg/L] | SOLUBILITY AT ROOM TEMPERATURE (22-24° C.), In water [1] [Mg/L] | solubility compared to the other organic strontium salts [1] | SOLUBILITY AT 40° C., pH 7.5 ([1]; pH 7.5) [mg/L] | SOLUBILITY AT ROOM TEMPERATURE (22-24° C.), pH 7.5 ([1]; pH 7.5) [Mg/L] | solubility in pH 7.5 buffered solution compared with pure water ([1]; pH 7.5) | Solubility, Expected Value 18° C. [2] [mg/mL] |
| --- | --- | --- | --- | --- | --- | --- | --- | --- | --- | --- |
| – | – | – | O=C([O-])/C=C/C(=O)[O-].[Sr+2] [Fumerate, strontium fumarate] | 444 | 571 | poor solubility | 977 | 1215 | – | – |
| – | – | – | O=C([O-])/C=C\C(=O)[O-].[Sr+2] [Maleate, strontium maleate] | 2527 | 3002 | – | 1457 | 1680 | decreased solubility in the buffered solution | – |
| 240 | approximately 2 hours | – | [Cl-].[Cl-].[Sr+2] [SrCl2, strontium chloride] | – | – | – | – | – | – | 538 |
| – | – | approximately 2 hours | N#Cc1c(N(CC(=O)[O-])CC(=O)[O-])sc(C(=O)[O-])c1CC(=O)[O-].[Sr+2].[Sr+2] [Ranelate, distrontium salt of 2-[N,N-di(carboxymethyl)amino]-3-cyano-4-carboxymethylthiophene-5-carboxylic acid, reference compound] | 1450 | 760 | – | 1970 | 890 | – | – |
| – | – | – | CC(=O)C(=O)O [Pyruvate, strontium pyruvate] | – | 2204 | – | – | 1946 | – | – |
